Measured values published in patent publication US20090017139A1, “Iodine therapy dosing for treating medical conditions” (priority 2007, published 2009).
Read-outs that look alike come from different tables or passages of the source.

Legend:
[1] = system: patient with follicular cyst of the ovary; assay: Example 4: I2 therapy of a patient with ovarian follicular cysts; format: in vivo, human
Method: The post surgical diagnosis was ruptured follicular cyst of the right ovary. After the surgical procedure the patient continued to experience lower right quadrant abdominal pain. […] The patient was started on I2 therapy at a dose of 6.0 mg/d. The patient was seen again 3 months later (December 3 to March 16). After three months of I2 therapy the patient was free of pain which their […] regarded as unique.
The patient subsequently stopped I2 therapy and approximately 3 years later symptoms of abdominal and breast pain were present. The patient was started again on daily I2 therapy at a dose of 6.0 mg/d. An ultrasound was performed and small follicular cysts in each ovary was noted. […] The patient was continued on daily iodine therapy at a concentration of 3.0 mg/d.

[2] = reacts with water at neutral pH; cited from earlier work
[3] = cited from earlier work
[4] = system: female patients with fibrocystic breast condition; assay: Example 2: 36 month study, treatment emergent thyroid status in iodine adapted patients; format: in vivo, human; conditions: for Hyperthyroidism Overt ↓TSH ↑T4 / Hyperthyroidism Subclinical ↓TSH / Hypothyroidism Overt ↑TSH (5-10) ↓T4 / Hypothyroidism Overt ↑TSH (10-20) ↓T4 / Hypothyroidism Overt ↑TSH (>20) ↓T4 / Hypothyroidism Subclinical ↑TSH (5-10) / Hypothyroidism Subclinical ↑TSH (10-20) / Hypothyroidism Subclinical ↑TSH (>20): iodine adapted, patients (percent of dose group)
Method: Female patients already receiving aqueous I2 therapy for fibrocystic breast condition were enrolled in study that ran for 36 months. Patients in this study were dosed at I2 levels that ranged from 3 to 12 mg/d. A total of 923 patients were enrolled; over 700 patients remained on drug for at least 2 years. The ages of participants ranged from 17 to 78 years with an average age of 47.4 years.
Variations in treatment emergent thyroid status were evaluated based on TSH and T4 values (see Table 1). […] Patients were categorized sub-clinical hypothyroid if TSH was elevated and T4 values were normal; patients with depressed T4 values were considered overtly hypothyroid.

breast cancer cell lines = conditions: cited from earlier work
women with mastalgia = conditions: cited from earlier work; for patients reporting headaches: 6 month study
[5] = in drinking water, 100 days; cited from earlier work
iodine naive women = assay: Example 3: I2 safety study, treatment emergent thyroid status in iodine naive women; format: in vivo, human; conditions: for Hyperthyroidism Overt ↓TSH ↑T4 / Hyperthyroidism Sub-clinical ↓TSH / Hypothyroidism Overt ↑TSH (5-10) ↓T4 / Hypothyroidism Overt ↑TSH (10-20) ↓T4 / Hypothyroidism Overt ↑TSH (>20) ↓T4 / Hypothyroidism Sub-clinical ↑TSH (5-10) / Hypothyroidism Sub-clinical ↑TSH (10-20) / Hypothyroidism Sub-clinical ↑TSH (>20): iodine naive, patients (percent of dose group)
Method: A second I2 safety study was conducted in women not previously exposed to iodine therapy (iodine naïve). […] Thyroid functions laboratory values were available for 365 patients. The age of the female participants ranged from 20 to 55; the average age was 42.4 years. Variations in treatment emergent thyroid status were evaluated based on TSH and T4 values (see Table 2). […] Patients were categorized sub-clinical hypothyroid if TSH was elevated and T4 values were normal; patients with depressed T4 values were considered overtly hypothyroid.
Sub-clinical hyperthyroidism is not correlated to an increased rate of either overt hyperthyroidism or overt hypothyroidism. On the other hand, it is well established that sub-clinical hypothyroidism is a risk factor for overt hypothyroidism. In fact, as stated in Example 2, antibodies to thyroid peroxidase combined with sub-clinical hypothyroidism are established risk factors for overt thyroid disease in women between the age of 30 and 50. Therefore the key question is whether or not dose is related to the frequency of sub-clinical hypothyroidism. Kendall's rank correlation was used to evaluate the relationship between dose and frequency of sub-clinical hypothyroidism.

[6] = I2 compared to iodide, cited from earlier work

II [I2, molecular iodine]
symptoms on continued therapy ([1]; 3.0 mg/d, seen 9 and 18 months later): remained asymptomatic | abdominal pain ([1]; 6.0 mg/d, after three months of therapy): free of pain | ultrasound of the ovaries ([1]; 6.0 mg/d, approximately 4 months later): ovaries appeared normal | symptoms of pain ([1]; 6.0 mg/d, within a month of reinitiating therapy): no longer present | maximum period of storage in an aqueous environment [2]: 2 to 8 h | iodine uptake in thyroid compared to iodide ([3]; oral administration): half as much | reduction of thyroidal uptake by perchlorate ([3]; perchlorate 6 mg i.p., 2 hr predosing): 40% | proportion of patients with sub-clinical hypothyroidism ([4]; 3 mg dose group): 13% | rate of all sub-clinical conditions ([4]; 3 mg dose group): 18.3% | proportion of patients with sub-clinical hypothyroidism ([4]; 6 mg dose group): 16.5% | rate of all sub-clinical conditions ([4]; 6 mg dose group): 22.2% | Hyperthyroidism Overt ↓TSH ↑T4 ([4]; I2 3.0 mg/d): 1 (0.3) | Hyperthyroidism Subclinical ↓TSH ([4]; I2 3.0 mg/d): 16 (5.3) | Hypothyroidism Overt ↑TSH (5-10) ↓T4 ([4]; I2 3.0 mg/d): 2 (0.4) | Hypothyroidism Overt ↑TSH (10-20) ↓T4 ([4]; I2 3.0 mg/d): 0 (0.0) | Hypothyroidism Overt ↑TSH (>20) ↓T4 ([4]; I2 3.0 mg/d): 0 (0.0) | Hypothyroidism Subclinical ↑TSH (5-10) ([4]; I2 3.0 mg/d): 27 (9.0) | Hypothyroidism Subclinical ↑TSH (10-20) ([4]; I2 3.0 mg/d): 10 (3.3) | Hypothyroidism Subclinical ↑TSH (>20) ([4]; I2 3.0 mg/d): 2 (0.7) | Hyperthyroidism Overt ↓TSH ↑T4 ([4]; I2 6.0 mg/d): 1 (0.2) | Hyperthyroidism Subclinical ↓TSH ([4]; I2 6.0 mg/d): 28 (5.7) | Hypothyroidism Overt ↑TSH (5-10) ↓T4 ([4]; I2 6.0 mg/d): 0 (0.0) | Hypothyroidism Overt ↑TSH (10-20) ↓T4 ([4]; I2 6.0 mg/d): 2 (0.4) | Hypothyroidism Overt ↑TSH (>20) ↓T4 ([4]; I2 6.0 mg/d): 2 (0.4) | Hypothyroidism Subclinical ↑TSH (5-10) ([4]; I2 6.0 mg/d): 70 (14) | Hypothyroidism Subclinical ↑TSH (10-20) ([4]; I2 6.0 mg/d): 10 (2.0) | Hypothyroidism Subclinical ↑TSH (>20) ([4]; I2 6.0 mg/d): 1 (0.2) | Hyperthyroidism Overt ↓TSH ↑T4 ([4]; I2 9.0 mg/d): 0 (0.0) | Hyperthyroidism Subclinical ↓TSH ([4]; I2 9.0 mg/d): 0 (0.0) | Hypothyroidism Overt ↑TSH (5-10) ↓T4 ([4]; I2 9.0 mg/d): 0 (0.0) | Hypothyroidism Overt ↑TSH (10-20) ↓T4 ([4]; I2 9.0 mg/d): 0 (0.0) | Hypothyroidism Overt ↑TSH (>20) ↓T4 ([4]; I2 9.0 mg/d): 0 (0.0) | Hypothyroidism Subclinical ↑TSH (5-10) ([4]; I2 9.0 mg/d): 0 (0.0) | Hypothyroidism Subclinical ↑TSH (10-20) ([4]; I2 9.0 mg/d): 1 (6.3) | Hypothyroidism Subclinical ↑TSH (>20) ([4]; I2 9.0 mg/d): 1 (6.3) | Hyperthyroidism Overt ↓TSH ↑T4 ([4]; I2 12.0 mg/d): 0 (0.0) | Hyperthyroidism Subclinical ↓TSH ([4]; I2 12.0 mg/d): 1 (25) | Hypothyroidism Overt ↑TSH (5-10) ↓T4 ([4]; I2 12.0 mg/d): 0 (0.0) | Hypothyroidism Overt ↑TSH (10-20) ↓T4 ([4]; I2 12.0 mg/d): 0 (0.0) | Hypothyroidism Overt ↑TSH (>20) ↓T4 ([4]; I2 12.0 mg/d): 0 (0.0) | Hypothyroidism Subclinical ↑TSH (5-10) ([4]; I2 12.0 mg/d): 0 (0.0) | Hypothyroidism Subclinical ↑TSH (10-20) ([4]; I2 12.0 mg/d): 0 (0.0) | Hypothyroidism Subclinical ↑TSH (>20) ([4]; I2 12.0 mg/d): 0 (0.0) | Overt hypothyroidism, patients (second statement, compared to prevalence of overt hyperthyroidism) ([4]; all patients, 3 to 12 mg/d): 0.5% | overall incidence of treatment emergent sub-clinical hyper- or hypothyroidism ([4]; all patients, 3 to 12 mg/d): 20.6% | Overt hypothyroidism, patients ([4]; all patients, 3 to 12 mg/d, first statement): 0.2% | effect on estrogen receptor concentration (breast cancer cell lines): reducing the concentration of estrogen receptor | patients reporting headaches (women with mastalgia; 1.5 mg/day group): 6.3% | patients reporting headaches (women with mastalgia; 3.0 mg/day group): 26% | patients reporting headaches (women with mastalgia; 6.0 mg/day group): 12% | change in five thyroid function tests (T3, T4, T uptake, TSH, FT3) (women with mastalgia; any treatment group): No statistically significant change | suppressing thyroid uptake of a challenge dose of 125iodide [5]: less effective than iodide | Hyperthyroidism Overt ↓TSH ↑T4 (iodine naive women; I2 2.0 mg/d): 0 (0.0) | Hyperthyroidism Sub-clinical ↓TSH (iodine naive women; I2 2.0 mg/d): 2 (3.4) | Hypothyroidism Overt ↑TSH (5-10) ↓T4 (iodine naive women; I2 2.0 mg/d): 1 (1.7) | Hypothyroidism Overt ↑TSH (10-20) ↓T4 (iodine naive women; I2 2.0 mg/d): 0 (0.0) | Hypothyroidism Overt ↑TSH (>20) ↓T4 (iodine naive women; I2 2.0 mg/d): 0 (0.0) | Hypothyroidism Sub-clinical ↑TSH (5-10) (iodine naive women; I2 2.0 mg/d): 3 (5.2) | Hypothyroidism Sub-clinical ↑TSH (10-20) (iodine naive women; I2 2.0 mg/d): 2 (3.4) | Hypothyroidism Sub-clinical ↑TSH (>20) (iodine naive women; I2 2.0 mg/d): 0 (0.0) | Hyperthyroidism Overt ↓TSH ↑T4 (iodine naive women; I2 3.0 mg/d): 2 (3.2) | Hyperthyroidism Sub-clinical ↓TSH (iodine naive women; I2 3.0 mg/d): 0 (0.0) | Hypothyroidism Overt ↑TSH (5-10) ↓T4 (iodine naive women; I2 3.0 mg/d): 0 (0.0) | Hypothyroidism Overt ↑TSH (10-20) ↓T4 (iodine naive women; I2 3.0 mg/d): 0 (0.0) | Hypothyroidism Overt ↑TSH (>20) ↓T4 (iodine naive women; I2 3.0 mg/d): 0 (0.0) | Hypothyroidism Sub-clinical ↑TSH (5-10) (iodine naive women; I2 3.0 mg/d): 5 (8.1) | Hypothyroidism Sub-clinical ↑TSH (10-20) (iodine naive women; I2 3.0 mg/d): 0 (0.0) | Hypothyroidism Sub-clinical ↑TSH (>20) (iodine naive women; I2 3.0 mg/d): 0 (0.0) | Hyperthyroidism Overt ↓TSH ↑T4 (iodine naive women; I2 6.0 mg/d): 0 (0.0) | Hyperthyroidism Sub-clinical ↓TSH (iodine naive women; I2 6.0 mg/d): 2 (3.3) | Hypothyroidism Overt ↑TSH (5-10) ↓T4 (iodine naive women; I2 6.0 mg/d): 0 (0.0) | Hypothyroidism Overt ↑TSH (10-20) ↓T4 (iodine naive women; I2 6.0 mg/d): 0 (0.0) | Hypothyroidism Overt ↑TSH (>20) ↓T4 (iodine naive women; I2 6.0 mg/d): 1 (1.7) | Hypothyroidism Sub-clinical ↑TSH (5-10) (iodine naive women; I2 6.0 mg/d): 6 (10) | Hypothyroidism Sub-clinical ↑TSH (10-20) (iodine naive women; I2 6.0 mg/d): 0 (0.0) | Hypothyroidism Sub-clinical ↑TSH (>20) (iodine naive women; I2 6.0 mg/d): 0 (0.0) | Hyperthyroidism Overt ↓TSH ↑T4 (iodine naive women; I2 9.0 mg/d): 2 (3.5) | Hyperthyroidism Sub-clinical ↓TSH (iodine naive women; I2 9.0 mg/d): 2 (3.5) | Hypothyroidism Overt ↑TSH (5-10) ↓T4 (iodine naive women; I2 9.0 mg/d): 2 (3.5) | Hypothyroidism Overt ↑TSH (10-20) ↓T4 (iodine naive women; I2 9.0 mg/d): 0 (0.0) | Hypothyroidism Overt ↑TSH (>20) ↓T4 (iodine naive women; I2 9.0 mg/d): 1 (1.8) | Hypothyroidism Sub-clinical ↑TSH (5-10) (iodine naive women; I2 9.0 mg/d): 8 (14) | Hypothyroidism Sub-clinical ↑TSH (10-20) (iodine naive women; I2 9.0 mg/d): 0 (0.0) | Hypothyroidism Sub-clinical ↑TSH (>20) (iodine naive women; I2 9.0 mg/d): 0 (0.0) | Hyperthyroidism Overt ↓TSH ↑T4 (iodine naive women; I2 .03 mg/d): 0 (0.0) | Hyperthyroidism Sub-clinical ↓TSH (iodine naive women; I2 .03 mg/d): 1 (1.5) | Hypothyroidism Overt ↑TSH (5-10) ↓T4 (iodine naive women; I2 .03 mg/d): 0 (0.0) | Hypothyroidism Overt ↑TSH (10-20) ↓T4 (iodine naive women; I2 .03 mg/d): 0 (0.0) | Hypothyroidism Overt ↑TSH (>20) ↓T4 (iodine naive women; I2 .03 mg/d): 0 (0.0) | Hypothyroidism Sub-clinical ↑TSH (5-10) (iodine naive women; I2 .03 mg/d): 3 (4.6) | Hypothyroidism Sub-clinical ↑TSH (10-20) (iodine naive women; I2 .03 mg/d): 0 (0.0) | Hypothyroidism Sub-clinical ↑TSH (>20) (iodine naive women; I2 .03 mg/d): 0 (0.0) | relationship between daily dose and frequency of sub-clinical hypothyroidism (iodine naive women; Kendall's rank correlation p 0.0167, Cuzik's trend test p less than 0.01): correlated to the frequency of sub-clinical hypothyroidism | Overt hypothyroidism, patients (second statement, compared to prevalence of overt hyperthyroidism) (iodine naive women; iodine naive patients): 1.6% | incidence of abnormal thyroid function, placebo versus treatment groups (iodine naive women; iodine naive patients, Fisher's exact test): did not differ | Overt hypothyroidism, patients (iodine naive women; iodine naive patients, first statement): 1.3% | percentage of administered iodine retained in the stomach contents and covalently bound to a lipid material [6]: larger percentage | percentage of iodine retained in thyroid 72 hours after administration, compared to iodide [6]: significantly less | retention of iodine in thyroid at 72 hours, less than with iodide ([6]; fasted rats, acute exposure): about 30%
